Common to all, as to assay: biochemical
Common to all, as to design: Eurofins recombinant human kinase profiling, remaining kinase activity as % of control, 10 uM ATP
Common to all, as to conditions: ATP 10 uM; read-out: %Ctrl@10 μM

The target of one test is RIPK1(h) (Homo sapiens, UniProt Q13546). The gist of the method:
(§1)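 Recombinant human kinases, 401 in total, screened using an outsourced kinase profiling assay.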

The target in another test is T1, MEK1(h) (Homo sapiens, UniProt Q02750).
T1 construct: gene MAP2K1
The gist of the method:
as §1

In the next test the target is CLK3(h) (Homo sapiens, UniProt P49761). The gist of the method:
as §1

The next test has as its target CDK4/cyclinD3(h) (Homo sapiens, UniProt P11802). The gist of the method: as §1
The next test addresses EphB2(h) (Homo sapiens, UniProt P29323). The gist of the method:
as §1

A further test deals with TBK1(h) (Homo sapiens, UniProt Q9UHD2). The gist of the method:
as §1

The next test addresses EphA8(h) (Homo sapiens, UniProt P29322). The gist of the method:
as §1

In the next test the target is T2, DRAK1(h) (Homo sapiens, UniProt Q9UEE5).
T2 construct: gene STK17A
T2 sequence (Q9UEE5 whole entry): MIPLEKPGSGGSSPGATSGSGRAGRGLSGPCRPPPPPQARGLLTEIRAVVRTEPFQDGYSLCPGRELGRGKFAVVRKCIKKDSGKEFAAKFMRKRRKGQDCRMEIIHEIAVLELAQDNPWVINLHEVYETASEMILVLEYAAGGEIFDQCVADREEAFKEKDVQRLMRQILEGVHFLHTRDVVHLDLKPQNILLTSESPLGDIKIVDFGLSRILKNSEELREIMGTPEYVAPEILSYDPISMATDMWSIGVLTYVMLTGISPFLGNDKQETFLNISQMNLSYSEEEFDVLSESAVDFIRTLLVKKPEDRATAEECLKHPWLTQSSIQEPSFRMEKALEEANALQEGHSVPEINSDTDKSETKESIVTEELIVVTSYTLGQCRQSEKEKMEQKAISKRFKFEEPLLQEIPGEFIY
The gist of the method: as §1

In the next test the target is T3, MKK6(h) (Homo sapiens, UniProt P52564).
T3 construct: gene MAP2K6
The gist of the method: as §1

The next test has as its target T4, CaMKIγ(h) (Homo sapiens, UniProt Q96NX5).
T4 construct: gene CAMK1G
The gist of the method: as §1

Another test concerns the target T5, CaMKIδ(h) (Homo sapiens, UniProt Q8IU85).
T5 construct: gene CAMK1D
The gist of the method: as §1

Another test deals with T6, TRB2(h) (Homo sapiens, UniProt Q92519).
T6 construct: gene TRIB2
The gist of the method: as §1

The next test concerns the target T7, PI3 Kinase (p120)(h) (Homo sapiens, UniProt P48736).
T7 construct: gene PIK3CG
The gist of the method: as §1

The target in a further test is TSSK2(h) (Homo sapiens, UniProt Q96PF2). The gist of the method:
as §1

In the next test the target is DYRK1A(h) (Homo sapiens, UniProt Q13627). The gist of the method:
as §1

Another test has as its target TTBK1(h) (Homo sapiens, UniProt Q5TCY1). The gist of the method:
as §1

For a further test, the target named is T8, PKCδ(h) (Homo sapiens, UniProt Q05655).
T8 construct: gene PRKCD
T8 sequence (Q05655 whole entry): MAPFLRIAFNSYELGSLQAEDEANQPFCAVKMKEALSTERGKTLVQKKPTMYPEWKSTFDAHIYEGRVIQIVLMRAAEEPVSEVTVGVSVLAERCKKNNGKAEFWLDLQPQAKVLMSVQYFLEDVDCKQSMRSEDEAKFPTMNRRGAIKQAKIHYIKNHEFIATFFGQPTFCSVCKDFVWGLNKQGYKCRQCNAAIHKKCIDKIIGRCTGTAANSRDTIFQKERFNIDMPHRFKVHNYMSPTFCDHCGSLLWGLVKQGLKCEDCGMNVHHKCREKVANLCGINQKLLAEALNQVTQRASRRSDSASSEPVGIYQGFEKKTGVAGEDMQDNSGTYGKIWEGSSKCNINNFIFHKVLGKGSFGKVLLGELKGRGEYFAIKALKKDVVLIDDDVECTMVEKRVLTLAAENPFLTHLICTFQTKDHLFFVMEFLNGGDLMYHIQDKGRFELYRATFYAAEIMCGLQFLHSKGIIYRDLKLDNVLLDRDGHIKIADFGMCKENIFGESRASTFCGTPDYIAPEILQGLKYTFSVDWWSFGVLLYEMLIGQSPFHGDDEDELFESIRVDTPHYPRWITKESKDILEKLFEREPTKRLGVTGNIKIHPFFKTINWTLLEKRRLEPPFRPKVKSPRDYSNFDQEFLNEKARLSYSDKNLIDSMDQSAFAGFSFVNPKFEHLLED
The gist of the method: as §1

A further test concerns the target CDKL1(h) (Homo sapiens, UniProt Q00532). The gist of the method:
as §1

For a further test, the target named is CDK14/cyclinY(h) (Homo sapiens, UniProt O94921). The gist of the method: as §1
Sequence of CDK14/cyclinY(h) (O94921 whole entry): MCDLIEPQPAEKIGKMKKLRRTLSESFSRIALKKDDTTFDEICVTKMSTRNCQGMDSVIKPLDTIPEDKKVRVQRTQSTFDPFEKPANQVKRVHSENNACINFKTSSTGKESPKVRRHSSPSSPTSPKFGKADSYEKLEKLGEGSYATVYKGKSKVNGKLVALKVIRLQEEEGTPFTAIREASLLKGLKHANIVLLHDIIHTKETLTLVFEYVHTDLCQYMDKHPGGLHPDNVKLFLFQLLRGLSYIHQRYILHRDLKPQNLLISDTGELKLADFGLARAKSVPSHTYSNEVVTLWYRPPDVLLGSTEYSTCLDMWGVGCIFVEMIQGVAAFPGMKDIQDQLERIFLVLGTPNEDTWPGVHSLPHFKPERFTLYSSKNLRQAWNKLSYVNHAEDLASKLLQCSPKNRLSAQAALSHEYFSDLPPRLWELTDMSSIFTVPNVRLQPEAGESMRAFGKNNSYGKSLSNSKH
Sequence of CDK14/cyclinY(h) (Q8ND76 whole entry partner): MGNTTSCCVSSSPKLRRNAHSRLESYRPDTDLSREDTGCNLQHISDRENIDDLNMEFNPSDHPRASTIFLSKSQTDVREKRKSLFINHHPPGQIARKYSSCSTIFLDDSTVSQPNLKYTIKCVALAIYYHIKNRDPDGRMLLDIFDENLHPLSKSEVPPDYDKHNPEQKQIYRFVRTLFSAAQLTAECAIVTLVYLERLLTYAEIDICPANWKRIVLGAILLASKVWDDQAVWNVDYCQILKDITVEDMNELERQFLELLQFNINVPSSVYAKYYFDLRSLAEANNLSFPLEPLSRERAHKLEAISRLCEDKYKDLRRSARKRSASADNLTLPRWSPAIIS
Another test deals with T9, Tie2 (h) (Homo sapiens, UniProt Q02763).
T9 construct: gene TEK
The gist of the method:
as §1

In a further test the target is T10, MLK2(h) (Homo sapiens, UniProt Q02779).
T10 construct: gene MAP3K10
T10 sequence (Q02779 whole entry): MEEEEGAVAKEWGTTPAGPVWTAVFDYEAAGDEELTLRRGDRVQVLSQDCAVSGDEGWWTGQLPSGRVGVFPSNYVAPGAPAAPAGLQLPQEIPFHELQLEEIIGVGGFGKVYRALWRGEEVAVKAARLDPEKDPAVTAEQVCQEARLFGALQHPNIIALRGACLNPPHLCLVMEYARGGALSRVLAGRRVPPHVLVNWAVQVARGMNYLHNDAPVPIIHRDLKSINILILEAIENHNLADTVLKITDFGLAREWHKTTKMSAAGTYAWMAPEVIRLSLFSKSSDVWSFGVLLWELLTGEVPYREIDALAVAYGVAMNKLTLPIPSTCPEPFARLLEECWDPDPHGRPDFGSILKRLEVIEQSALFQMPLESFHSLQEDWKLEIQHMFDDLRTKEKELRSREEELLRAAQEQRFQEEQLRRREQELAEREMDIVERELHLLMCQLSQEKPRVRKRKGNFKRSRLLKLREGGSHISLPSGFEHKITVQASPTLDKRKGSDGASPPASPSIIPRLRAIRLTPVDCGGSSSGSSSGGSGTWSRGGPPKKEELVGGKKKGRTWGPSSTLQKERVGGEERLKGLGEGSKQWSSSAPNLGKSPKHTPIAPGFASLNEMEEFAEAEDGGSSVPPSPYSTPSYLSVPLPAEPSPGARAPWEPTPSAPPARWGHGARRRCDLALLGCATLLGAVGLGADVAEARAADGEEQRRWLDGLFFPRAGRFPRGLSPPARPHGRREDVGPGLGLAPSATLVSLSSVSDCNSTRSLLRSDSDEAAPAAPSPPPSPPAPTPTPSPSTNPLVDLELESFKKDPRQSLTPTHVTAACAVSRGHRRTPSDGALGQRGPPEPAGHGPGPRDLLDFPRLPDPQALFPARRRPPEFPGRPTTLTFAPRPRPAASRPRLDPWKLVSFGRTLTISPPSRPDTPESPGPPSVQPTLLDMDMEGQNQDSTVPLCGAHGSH
The gist of the method: as §1

A further test deals with T11, MAPK1(h) (Homo sapiens, UniProt P27361).
T11 construct: gene MAPK3
The gist of the method: as §1

For another test, the target named is FGFR1(V561M)(h) (Homo sapiens, UniProt P11362, V561M). The gist of the method: as §1

Sequence of CLK3(h) (P49761 whole entry): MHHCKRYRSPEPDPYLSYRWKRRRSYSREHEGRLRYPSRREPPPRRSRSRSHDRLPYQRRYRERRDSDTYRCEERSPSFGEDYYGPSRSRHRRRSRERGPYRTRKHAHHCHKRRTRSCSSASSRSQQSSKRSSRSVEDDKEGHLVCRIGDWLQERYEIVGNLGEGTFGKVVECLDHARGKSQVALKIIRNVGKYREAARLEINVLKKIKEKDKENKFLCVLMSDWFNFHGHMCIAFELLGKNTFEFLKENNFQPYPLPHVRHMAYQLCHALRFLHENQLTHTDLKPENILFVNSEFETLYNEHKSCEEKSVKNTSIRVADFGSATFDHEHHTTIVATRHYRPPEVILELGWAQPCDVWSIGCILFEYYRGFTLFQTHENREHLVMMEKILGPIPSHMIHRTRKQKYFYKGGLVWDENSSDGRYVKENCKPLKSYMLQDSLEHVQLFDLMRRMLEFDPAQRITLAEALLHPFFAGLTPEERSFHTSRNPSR
Sequence of EphA8(h) (P29322 whole entry): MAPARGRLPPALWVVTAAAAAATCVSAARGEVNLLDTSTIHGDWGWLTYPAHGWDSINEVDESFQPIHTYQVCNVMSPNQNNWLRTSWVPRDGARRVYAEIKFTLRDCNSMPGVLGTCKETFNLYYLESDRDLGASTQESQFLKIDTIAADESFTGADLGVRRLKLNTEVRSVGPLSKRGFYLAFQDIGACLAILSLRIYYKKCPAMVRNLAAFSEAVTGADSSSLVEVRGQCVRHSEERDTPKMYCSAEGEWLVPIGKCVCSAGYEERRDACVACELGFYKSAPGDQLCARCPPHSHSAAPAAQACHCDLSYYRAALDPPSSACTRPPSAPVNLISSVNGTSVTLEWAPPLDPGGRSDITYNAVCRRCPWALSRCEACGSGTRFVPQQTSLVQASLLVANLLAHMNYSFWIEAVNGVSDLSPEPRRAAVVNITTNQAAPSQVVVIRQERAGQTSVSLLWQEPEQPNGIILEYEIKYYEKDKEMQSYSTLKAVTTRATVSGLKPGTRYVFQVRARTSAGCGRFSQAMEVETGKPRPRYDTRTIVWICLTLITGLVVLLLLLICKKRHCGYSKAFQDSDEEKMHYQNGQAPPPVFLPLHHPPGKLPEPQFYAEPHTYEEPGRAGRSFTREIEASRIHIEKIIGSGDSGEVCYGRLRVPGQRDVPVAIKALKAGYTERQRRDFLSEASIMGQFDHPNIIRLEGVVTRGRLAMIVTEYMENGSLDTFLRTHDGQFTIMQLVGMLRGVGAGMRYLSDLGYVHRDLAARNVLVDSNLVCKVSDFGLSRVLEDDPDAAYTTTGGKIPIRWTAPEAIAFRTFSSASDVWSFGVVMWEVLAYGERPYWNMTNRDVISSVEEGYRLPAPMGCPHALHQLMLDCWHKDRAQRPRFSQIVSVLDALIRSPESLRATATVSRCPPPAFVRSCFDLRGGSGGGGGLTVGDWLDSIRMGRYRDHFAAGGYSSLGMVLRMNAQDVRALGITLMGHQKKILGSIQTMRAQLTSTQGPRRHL
T4 sequence (Q96NX5 whole entry): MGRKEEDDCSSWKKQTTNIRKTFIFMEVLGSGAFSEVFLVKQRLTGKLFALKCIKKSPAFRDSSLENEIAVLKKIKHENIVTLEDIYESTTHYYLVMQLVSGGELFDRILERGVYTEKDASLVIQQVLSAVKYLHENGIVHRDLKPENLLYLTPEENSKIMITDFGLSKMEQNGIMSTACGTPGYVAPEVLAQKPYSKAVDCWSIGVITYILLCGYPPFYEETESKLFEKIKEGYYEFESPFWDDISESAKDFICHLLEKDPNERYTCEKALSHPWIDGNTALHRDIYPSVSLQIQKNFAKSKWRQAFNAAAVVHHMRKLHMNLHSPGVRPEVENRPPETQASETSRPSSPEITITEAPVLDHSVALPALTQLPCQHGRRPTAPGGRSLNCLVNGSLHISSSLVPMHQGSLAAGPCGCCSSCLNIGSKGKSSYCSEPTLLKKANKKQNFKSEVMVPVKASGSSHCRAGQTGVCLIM

Turning to `C1=C(c2nc(-c3cnn(C4CCNCC4)c3)cn3cc(-c4ccccc4)nc23)CCOC1` [YL-939], the remaining activity at 10 µM on RIPK1(h) was found to be 106%; on MEK1(h), 109%; on CLK3(h), 96%; on CDK4/cyclinD3(h), 80%; at EphB2(h) it was 81%; on TBK1(h) it was 90%. The remaining activity at 10 µM on EphA8(h) turned out to be 76%; on DRAK1(h), 60%; on MKK6(h), 106%; at CaMKIγ(h) it was 108%; at CaMKIδ(h) it was 90%; at TRB2(h), 59%. Besides, the remaining activity at 10 µM at PI3 Kinase (p120)(h) came out at 104%; on TSSK2(h) it was 83%; at DYRK1A(h), 83%; at TTBK1(h), 103%; on PKCδ(h) it was 81%; at CDKL1(h), 96%. For the same compound, the remaining activity at 10 µM was determined as 111% on CDK14/cyclinY(h); 81% on Tie2 (h); 82% on MLK2(h); 103% at MAPK1(h); 65% on FGFR1(V561M)(h).

Source of the values: PMC9719519, “Non-classical ferroptosis inhibition by a small molecule targeting PHB2” (Nature Communications, 2022).
